Series [1] concerns non-small cell lung carcinoma (NCI-H460). Nature of the series: MTT cytotoxicity assay, NCI-H460. The series is classed as cell-based, human. To be noted: 72 h. On the procedure: (§1) Example 2 describes the in vitro cytotoxicity, which is indicative of the induction of cell death and/or inhibition of cellular proliferation of cancer cells, of the cyclometalated N-heterocyclic complexes on cervical epithelioid carcinoma, hepatocellular carcinoma, leukemia, nasopharyngeal carcinoma, breast carcinoma, melanoma, and lung carcinoma.
(§2) By means of MTT assays, the cytotoxic properties of cyclometalated N-heterocyclic carbene complexes (1-25) were determined toward some established human cancer cell lines including hepatocellular carcinoma (HepG2), cervical epithelioid carcinoma (HeLa), epithelial carcinoma (KB and its camptothecin-resistant cell line KB100), non-small cell lung carcinoma (NCI-H460), leukemia (HL-60), breast carcinoma (MDA-MB-231), melanoma (B16) and nasopharyngeal carcinoma (SUNE1). […] In terms of the IC50 values, they display similar cytotoxic properties compared to the reference complexes cisplatin and camptothecin (CPT).
For orientation: Tetrazolium dyes change colour on reduction, which living cells bring about.

The next series concerns SUNE1 cells. Nature of the series: Apoptosis induction by flow cytometry (AV-FITC / PI). Type of series: cell-based. To be noted: 72 h. As to the method: Since cancer is characterized by uncontrolled cellular proliferation, there is a considerable interest in chemotherapeutic-induced apoptosis [J. C. Reed, Nature Rev. Drug Discov. 2002, 1, 111; D. W. Nicholson, Nature 2000, 407, 810]. Using fluorescein-labeled annexin V (AV-FITC) and propidium iodide (PI), the apoptosis-inducing properties of complex 1 in SUNE1 cells were examined by flow cytometry. […] The apoptosis-inducing properties of complex 1 at a lower dose (12 μM for 72 h) were also examined. […] According to the propagation profiles (formazan absorbance A550nm vs incubation time) of the treated SUNE1 cells, there is a trend of cellular growth inhibition in the presence of complex 1 at 12 μM level. Taken together with the flow cytometric results, complex 1 appears to inhibit cancer cell proliferation at 12 μM and induce apoptosis at higher doses (i.e. 60 μM).
The apoptosis-inducing properties of complex 14 in SUNE1 cells were also examined by flow cytometry. […] The apoptosis-inducing properties of complex 14 at a lower dose (1 μM for 72 h) were also examined. […] Thus, complex 14 could induce apoptosis at 10 μM.

The test system of series [2] is cervical epithelioid carcinoma (HeLa). The series is described as follows: MTT cytotoxicity assay, HeLa. Type of series: cell-based, human. To be noted: 72 h. As to the method: as §1, §2
The next series deals with leukemia (HL-60). The series is described as follows: MTT cytotoxicity assay, HL-60. Particulars: 72 h. Type of series: cell-based, human. As to the method:
as §1, §2

Series [3] relates to epithelial carcinoma (KB). Nature of the series: MTT cytotoxicity assay, KB. Particulars: 72 h. Type of series: cell-based, human. On the procedure:
as §1, §2

A further series has as its system NCI-H460 tumor. The series is described as follows: In vivo anti-cancer study, NCI-H460 tumor in nude mice. Details: species or system BALB/c AnN-nu mice (nude mice). Particulars: twice-a-week intraperitoneal injection; for inhibition of NCI-H460 tumor growth: 28 days. An excerpt: For the complex 14, four-week-old male BALB/c AnN-nu mice (nude mice) were obtained from the laboratory of PearL Materia Medica Development (Shenzhen) Ltd. Tumor cells (1×10^6) resuspended in DMEM medium were implanted by subcutaneous injection on the right flank of the mice. When tumors were approximately 50 mm^3 in size, animals were randomly separated into four groups to receive treatment of twice-a-week intraperitoneal injection of 20% PET vehicle control (20% PET=12% polyethylene glycol 400; 6% ethanol; 2% Tween 20; 80% phosphate-buffered saline), complex 14 at 1 mg/kg, complex 14 at 3 mg/kg or cyclophosphamide at 30 mg/kg. Volumes of the tumor were measured every 3 to 4 days. Tumor volume was calculated by the formula: abc/2 in which a, represents tumor length; b, the width; and c, tumor thickness, as measured with a caliper and expressed in millimeter. After 28 days, the mice were sacrificed and the tumors were taken out and their weights were measured.

In series [4] the test system is breast carcinoma (MDA-MB-231). The series is described as follows: MTT cytotoxicity assay, MDA-MB-231. Type of series: cell-based, human. To be noted: 72 h, MBA-MD-231. On the procedure: as §1, §2
The next series has as its system melanoma (B16). Nature of the series: MTT cytotoxicity assay, B16. Type of series: cell-based, mouse. To be noted: 72 h. On the procedure:
as §1, §2

The subject of series [5] is lung fibroblast cells (CCD-19Lu). The series is described as follows: MTT cytotoxicity to non-cancerous cells, CCD-19Lu. Type of series: cell-based, human. To be noted: 72 h, non-cancerous lung fibroblast cells CCD-19Lu. As to the method:
as §2
Using lung fibroblast cells (CCD-19Lu), the cytotoxicity of the complexes to non-cancerous cells was also examined.

Series [6] deals with nasopharyngeal carcinoma (SUNE1). The series is described as follows: MTT cytotoxicity assay, SUNE1. Type of series: cell-based, human. Particulars: 72 h. On the procedure: as §1, §2
The subject of series [7] is camptothecin-resistant cell line KB100. Nature of the series: MTT cytotoxicity assay, KB100. Type of series: cell-based, human. To be noted: 72 h. As to the method: as §1, §2
Series [8] relates to hepatocellular carcinoma (HepG2). The series is described as follows: MTT cytotoxicity assay, HepG2. Type of series: cell-based, human. To be noted: 72 h. On the procedure: as §1, §2
The next series deals with KB cells. Nature of the series: Alkaline comet assay for DNA strand breaks. Type of series: cell-based. To be noted: for strand breaks on chromosomal DNA (comet assay): 3 h, KB cells; for reversal of DNA cleavage events upon second incubation: second incubation at 55° C. for 10 min.
The target of the next series is T1, TopoI (Homo sapiens, UniProt P11387).
T1 construct: endogenous in cells; host or cells: KB cells
T1 sequence (P11387 1-765): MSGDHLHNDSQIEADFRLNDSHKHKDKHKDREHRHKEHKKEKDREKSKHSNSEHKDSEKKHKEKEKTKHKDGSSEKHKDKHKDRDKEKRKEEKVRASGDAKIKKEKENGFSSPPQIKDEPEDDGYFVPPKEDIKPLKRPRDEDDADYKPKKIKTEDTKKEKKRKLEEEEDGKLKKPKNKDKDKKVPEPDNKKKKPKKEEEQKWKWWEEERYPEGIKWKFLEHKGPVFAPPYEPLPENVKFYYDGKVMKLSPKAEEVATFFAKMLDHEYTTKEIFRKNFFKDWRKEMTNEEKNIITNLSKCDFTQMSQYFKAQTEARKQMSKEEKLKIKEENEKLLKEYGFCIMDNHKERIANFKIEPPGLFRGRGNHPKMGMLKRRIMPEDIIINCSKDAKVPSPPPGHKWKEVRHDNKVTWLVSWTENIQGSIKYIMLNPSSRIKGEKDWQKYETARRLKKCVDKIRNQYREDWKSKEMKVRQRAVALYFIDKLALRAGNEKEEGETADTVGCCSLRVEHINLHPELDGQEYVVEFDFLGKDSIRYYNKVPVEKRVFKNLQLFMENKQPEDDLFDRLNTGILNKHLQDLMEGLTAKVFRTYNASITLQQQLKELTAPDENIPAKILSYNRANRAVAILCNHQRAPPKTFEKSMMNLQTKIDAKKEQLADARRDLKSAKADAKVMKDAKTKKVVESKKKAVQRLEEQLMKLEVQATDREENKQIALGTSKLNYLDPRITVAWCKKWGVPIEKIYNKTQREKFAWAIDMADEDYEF
Nature of the series: Band depletion assay for TopoI cleavable complexes. Type of series: cell-based. To be noted: KB cells. The source says:
In this assay, while TopoI-DNA cleavable complexes are trapped by alkaline lysis, free TopoI is detected as an immunoreactive band.

The target in a further series is T2, topoisomerase I (TopoI) (Homo sapiens, UniProt P11387).
T2 sequence (P11387 1-765): T1 sequence (P11387 1-765)
Nature of the series: TopoI-mediated relaxation of supercoiled DNA. The series is classed as biochemical. The source says: DNA strand breaks were also detected in complex 1-treated KB cells by alkaline comet assay. […] Topoisomerases have become one of the important cellular targets for anti-cancer treatment. It is believed that topoisomerase inhibitors prevent the ligation step of the cell cycle, generate DNA strand breaks, and subsequently induce apoptosis in cells. […] The assay was repeated on ethidium bromide containing gel (FIG. 4, lower).

In series [9] the test system is established human cancer cell lines. The series is described as follows: MTT cytotoxicity, panel of cancer cell lines (summary statements). Type of series: cell-based. To be noted: in terms of IC50, versus cisplatin. On the procedure: as §2
For series [10], the system named is PLC tumor (hepatocellular carcinoma). Nature of the series: In vivo anti-cancer study, nude mice bearing PLC tumor. Particulars: 3 mg/kg/week for 28 days. The source says:
Prompted by the prominent in vitro cytotoxicity and the potential cancer-cell selectivity, the in vivo anti-cancer property of complex 1 was preliminarily examined by using nude mice models with the approval from the Committee on the Use of Live Animals for Teaching and Research (The University of Hong Kong).

Broadly, the IC50 is the concentration that gives 50% inhibition. Lower therefore signals greater potency in that assay. For `CCCCn1cc[n+](CCCC)[c]1[Pt-2]12[c]3ccccc3-c3cccc([n+]31)-c1cccc[n+]12.F[P-](F)(F)(F)(F)F` (centres unmarked) [Complex 14], the half-maximal inhibitory concentration (IC50) in [1] was 90 nM; in series [2], 50 nM; with leukemia (HL-60), 80 nM; in [3] it was 40 nM; in series [4] it was 40 nM; in the series with melanoma (B16), 150 nM. Further, the IC50 was determined as 10000 nM in series [5], 140 nM in series [6], 80 nM in series [7] and 770 nM in [8]. Further, the “viable cells unstained by both AV-FITC and PI” value in the series with SUNE1 cells (1 μM) was around 90%. The “SUNE1 cells in early apoptotic state” value in the series on SUNE1 cells (10 μM) is given as 46.4%. Besides, the entries for the “inhibition of NCI-H460 tumor growth” value in the series on NCI-H460 tumor (1 mg/kg) and in the series with NCI-H460 tumor (3 mg/kg) were “significantly less effective” and 55%, respectively. Also, the body-weight loss result in the series on NCI-H460 tumor (3 or 1 mg/kg) is “no significant weight loss”.
As to `CC[C@@]1(O)C(=O)OCc2c1cc1n(c2=O)Cc2cc3ccccc3nc2-1` [CPT, camptothecin], in the series on KB cells (1 μM), the “strand breaks on chromosomal DNA (comet assay)” value is given as “induced extensive strand breaks on chromosomal DNA”. Also, the “reversal of DNA cleavage events upon second incubation” value in the series with KB cells is “partially reversed”. Besides, the “band intensity of the TopoI band” value on TopoI (1 μM) was “reduced the band intensity of the TopoI band”.
On to `Cn1cc[n+](C)[c]1[Au-]12[c]3ccccc3-c3cccc([n+]31)-c1cccc[c]12.O=S(=O)([O-])C(F)(F)F` [Complex 1], for which the “inhibition of TopoI-mediated DNA relaxation” value against topoisomerase I (TopoI) (10 μM) was “completely inhibited”; against topoisomerase I (TopoI) (dose response, compared with CPT) it was “dose-dependently inhibits DNA relaxation at significant lower concentrations than CPT”. In addition, at topoisomerase I (TopoI) (ethidium bromide containing gel), the “nicked DNA (stimulation of DNA cleavage by TopoI)” value is recorded as “presence of nicked DNA was observed”. The IC50 was 170 nM in series [1]; 150 nM in series [2]; 480 nM in the series on leukemia (HL-60); 560 nM in [3]; 620 nM in series [4]; 330 nM in the series on melanoma (B16). Also, the IC50 in series [5] turned out to be 25000 nM; in series [7], 1200 nM; in [8], 370 nM. Moreover, the “viable cells unstained by both AV-FITC and PI” value in the series with SUNE1 cells (12 μM) was around 90%. In addition, in the series with SUNE1 cells (60 μM), the “SUNE1 cells in early apoptotic state” value amounted to 30.9%. Moreover, the “fold higher cytotoxic activity than cisplatin” value in series [9] is listed as 18 to 28 fold. Besides, in [10] (nude mice), the “toxic side-effect including death and weight loss” value is “no apparent 1-induced toxic side-effect including death and weight loss was observed”. Moreover, the “suppression of tumor growth compared to vehicle control” value in series [10] (nude mice bearing PLC tumor) is listed as 47%. Moreover, in the series with KB cells (0.5 μM), the “strand breaks on chromosomal DNA (comet assay)” value is “induced extensive strand breaks on chromosomal DNA”. Moreover, in the series with KB cells, the “reversal of DNA cleavage events upon second incubation” value is “partially reversed”. Further, the “band intensity of the TopoI band” value on TopoI (10 and 100 nM) is recorded as “reduced the band intensity of the TopoI band”.
